Entries after “also recorded” stand apart in the source; their conditions may differ.
Key:
Assay type in all cases: cell-based
yeast sir2 = biological target: T1, yeast sir2 (Saccharomyces cerevisiae, UniProt P06700); experiment: yeast silencing assay (strain SL8c, URA at the telomere, 5FOA growth); conditions: SD+0.1% 5FOA, 30° C., 18-24 hrs
T1 construct: endogenous in cells; host or cells: yeast strain SL8c (URA at the telomere)
Description: Strain SL8c (URA at the telomere) was used for yeast based assay to screen compounds. Cells were grown in -URA media to select de-silenced cells. The next day cells were diluted 1:20 into fresh YPD with 2% glucose then grow for 5 hrs. Cells were then diluted OD=0.01 in both SD and SD+0.1% 5FOA media. The compounds were then serially diluted into 10 ul of SD or SD+0.1% 5FOA medium. 140 ul of cells were pipetted into a 96 well plate and grown at 30° C. for 18-24 hrs.

[1] = system: acetylated p53 (at lysine 382) in NCI-H460 cells; experiment: p53 acetylation (lysine 382) in etoposide-treated NCI-H460 cells, Western blot; conditions: for acetylation of p53 (lysine 382) by enantiomers: 6 hours, 20 micromolar etoposide, immunoprecipitation of p53
HeLa cell = experiment: HeLa apoptosis assay (Cell Death Detection ELISA plus kit)
Description: The following exemplary compounds were evaluated for their effect on a HeLa cell apoptosis assay using the Cell Death Detection ELISA plus kit from Roche Applied Science.

[2] = system: acetylated lysine 382 of p53 in U20S cells; experiment: p53 acetylation (lysine 382) in etoposide-treated U20S cells; conditions: 20 micromolar etoposide, 6 hours
GFP-hSIRT2 isoform 1 = biological target: T2, GFP-hSIRT2 isoform 1 (Homo sapiens, UniProt Q8IXJ6); experiment: acetylated tubulin staining in HeLa cells transfected with GFP-hSIRT2; conditions: 1 μM TSA, 50 μM compound
T2 sequence (Q8IXJ6 1-389): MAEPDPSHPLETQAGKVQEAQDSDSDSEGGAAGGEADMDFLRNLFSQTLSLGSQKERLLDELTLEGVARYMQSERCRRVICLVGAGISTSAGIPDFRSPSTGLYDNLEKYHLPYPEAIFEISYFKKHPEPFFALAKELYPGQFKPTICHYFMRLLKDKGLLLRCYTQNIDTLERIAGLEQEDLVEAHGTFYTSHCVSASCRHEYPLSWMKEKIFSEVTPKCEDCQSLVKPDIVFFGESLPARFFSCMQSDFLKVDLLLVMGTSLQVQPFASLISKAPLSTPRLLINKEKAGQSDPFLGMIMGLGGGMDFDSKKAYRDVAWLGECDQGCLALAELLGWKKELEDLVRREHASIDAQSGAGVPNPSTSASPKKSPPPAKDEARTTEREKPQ
Text: HeLa cells were transfected with GFP-hSIRT2 isoform 1 (green). […] The next morning cells were fixed, permeabilized, and stained for acetylated tubulin (red).

[3] = system: acetylated lysine 382 of p53 in MCF7 cells; experiment: p53 acetylation (lysine 382) in etoposide-treated MCF7 cells; conditions: MCF7, 20 micromolar etoposide, 6 hours
NCI-H460 cells [4] = experiment: thymidine incorporation with etoposide and compound (cytostar plates); conditions: NCI-H460, 1 micromolar compound, added concurrent to, prior to, and after etoposide
Description: Thymidine incorporation was measured at 24 hours intervals.

NCI-H460 cells [5] = experiment: cell survival after DNA damage with etoposide; conditions: NCI-H460, varying concentrations of etoposide
Text: NCI-H460 cells were damaged with varying concentrations of etoposide in the presence or absence of SIRT1 inhibitors.

p27 in HEK293 cells = experiment: p27 protein immunoblot in serum starved HEK293 cells; conditions: HEK293, serum starved 24 hrs

T1 sequence (P06700 whole entry): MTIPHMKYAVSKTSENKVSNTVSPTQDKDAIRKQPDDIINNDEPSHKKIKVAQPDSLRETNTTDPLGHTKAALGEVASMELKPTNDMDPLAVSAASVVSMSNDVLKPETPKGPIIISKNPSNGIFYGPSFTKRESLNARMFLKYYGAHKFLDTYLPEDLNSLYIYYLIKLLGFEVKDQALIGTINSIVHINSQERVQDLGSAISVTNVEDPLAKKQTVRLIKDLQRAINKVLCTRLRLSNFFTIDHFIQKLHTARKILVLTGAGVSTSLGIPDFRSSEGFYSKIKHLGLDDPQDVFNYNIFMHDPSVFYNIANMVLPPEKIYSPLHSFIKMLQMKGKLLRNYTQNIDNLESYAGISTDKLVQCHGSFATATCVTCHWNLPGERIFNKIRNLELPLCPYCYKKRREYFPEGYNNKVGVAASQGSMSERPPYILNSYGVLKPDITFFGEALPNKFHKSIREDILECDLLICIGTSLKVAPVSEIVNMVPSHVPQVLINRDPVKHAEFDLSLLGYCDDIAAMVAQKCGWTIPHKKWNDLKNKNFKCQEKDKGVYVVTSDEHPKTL

Compound	effect on yeast cell growth / silencing (yeast sir2)	acetylation of p53 (lysine 382) by enantiomers [1]	average (HeLa apoptosis, Cell Death Detection ELISA) (HeLa cell; dose 0.5 (unit not given))	average (HeLa apoptosis, Cell Death Detection ELISA) (HeLa cell; dose 2.5 (unit not given))	average (HeLa apoptosis, Cell Death Detection ELISA) (HeLa cell; dose 10 (unit not given))	average (HeLa apoptosis, Cell Death Detection ELISA) (HeLa cell; dose 25 (unit not given))	inhibition of SIRT1 / P53 acetylation [2]	tubulin acetylation in cells expressing SIRT2 (GFP-hSIRT2 isoform 1)	inhibition of SIRT1 / P53 acetylation [3]	synergy with etoposide on growth characteristics (thymidine incorporation) (NCI-H460 cells [4])	p53 function measured as cell survival after DNA damage (NCI-H460 cells [5])	serum starvation-mediated upregulation of p27 (p27 in HEK293 cells)	p53 acetylation (at lysine 382) after etoposide treatment ([1]; 20 uM etoposide, 1 uM and 10 uM equally effective, relative to DMSO)
NC(=O)C1CCCc2c1[nH]c1ccc(Cl)cc21 (single isomer, unassigned) [8(−), 6-Chloro-2,3,4,9-tetrahydro-1H-carbazole-1-carboxylic acid amide]	preferentially inhibits yeast sir2 relative to enantiomer 8(+); also recorded: inhibits SIRT1 and allows for expression of URA3 which blocks growth in the presence of 5-fluorouracil	significant increase in acetylation and stabilization of p53 protein	–	–	–	–	–	–	–	–	–	–	–
NC(=O)C1CCCc2c1[nH]c1ccccc21 (centres unmarked) [Compound 5, 2,3,4,9-Tetrahydro-1H-carbazole-1-carboxylic acid amide]	–	–	1.00	0.97	1.07	0.91	–	–	–	–	–	–	–
Oc1ccc(/C=C/c2cc(O)cc(O)c2)cc1 [Resveratol, reference compound]	–	–	0.83	0.84	1.01	0.56	–	–	–	–	–	–	–
NC(=O)C1CCCc2c1[nH]c1ccc(Cl)cc21 (single isomer, unassigned) [8(+), 6-Chloro-2,3,4,9-tetrahydro-1H-carbazole-1-carboxylic acid amide]	no effect on cell growth	does not lead to increased acetylation of p53	–	–	–	–	–	–	–	–	–	–	–
NC(=O)C1CCCc2c1[nH]c1ccc(Cl)cc21 (centres unmarked) [Compound 8, 6-Chloro-2,3,4,9-tetrahydro-1H-carbazole-1-carboxylic acid amide]	–	–	1.23	1.85	2.11	2.27	competent to inhibit SIRT1 in a variety of cell lines with similar effects on P53 acetylation	the tubulin is more highly acetylated indicating that the effect of SIRT2 was blocked	competent to inhibit SIRT1 in a variety of cell lines with similar effects on P53 acetylation	no synergy between etoposide and compound 8	did not modulate p53 function significantly	abrogation of serum starvation-mediated upregulation of the cell cycle inhibitor p27	increase p53 acetylation significantly relative to DMSO alone

Source: patent US8486990B2, “SirT inhibitors that bind to NAD” (Elixir Pharmaceuticals, Inc., priority 2003, dated 2013)
